Assay results reported in PubChem BioAssay (NCI).
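96-well plates; 48 h exposure; 5 concentrations. Endpoints by linear interpolation between flanking doses. Not reached: highest tested concentration assigned. GI50 marks 50% less growth. TGI marks complete inhibition of growth.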

What was measured:
Assay in all cases: NCI anticancer screen, dose series, 48 h
HCT-15 colon = tested on: HCT-15 colon
HOP-92 NSCLC = tested on: HOP-92 NSCLC
MDA-MB-435 = tested on: MDA-MB-435
NCI-H23 lung = tested on: NCI-H23 lung
NCI/ADR-RES ovarian = tested on: NCI/ADR-RES ovarian
OVCAR-3 ovarian = tested on: OVCAR-3 ovarian
PC-3 prostate = tested on: PC-3 prostate
RPMI-8226 leukemia = tested on: RPMI-8226 leukemia
SF-268 CNS = tested on: SF-268 CNS
UACC-62 melanoma = tested on: UACC-62 melanoma

| Structure (SMILES) | TGI (HCT-15 colon) [µM] | TGI (HOP-92 NSCLC) [µM] | TGI (MDA-MB-435) [µM] | TGI (NCI-H23 lung) [µM] | TGI (NCI/ADR-RES ovarian) [µM] | TGI (OVCAR-3 ovarian) [µM] | TGI (PC-3 prostate) [µM] | TGI (RPMI-8226 leukemia) [µM] | TGI (SF-268 CNS) [µM] | TGI (UACC-62 melanoma) [µM] | GI50 (HCT-15 colon) [µM] | GI50 (HOP-92 NSCLC) [µM] | GI50 (MDA-MB-435) [µM] | GI50 (NCI-H23 lung) [µM] | GI50 (NCI/ADR-RES ovarian) [µM] | GI50 (OVCAR-3 ovarian) [µM] | GI50 (PC-3 prostate) [µM] | GI50 (RPMI-8226 leukemia) [µM] | GI50 (SF-268 CNS) [µM] | GI50 (UACC-62 melanoma) [µM] |
| --- | --- | --- | --- | --- | --- | --- | --- | --- | --- | --- | --- | --- | --- | --- | --- | --- | --- | --- | --- | --- |
| Cc1ccc(S(=O)(=O)Oc2cc(N)c3c(n2)CCC3)cc1 | > 100 | > 100 | > 100 | > 100 | > 100 | > 100 | > 100 | > 100 | > 100 | > 100 | – | – | – | – | – | – | – | – | – | – |
| O=C1CCC(=Nc2ccc(Cl)cc2)N1C(=O)COc1ccc(OCC(=O)N2C(=O)CSC2=Nc2ccc(Cl)cc2)cc1 | > 100 | > 100 | > 100 | > 100 | > 100 | > 100 | > 100 | > 100 | > 100 | > 100 | – | – | – | – | – | – | – | – | – | – |
| O=C(O)C1CC(c2ccc(F)cc2)=Nc2ccc(F)cc2S1 (stereo not given) | > 100 | > 100 | > 100 | > 100 | > 100 | > 100 | > 100 | > 100 | > 100 | > 100 | – | – | – | – | – | – | – | – | – | – |
| C=C1[C@@H](O)C[C@@]23CC[C@@H]4[C@@]5(C)CC[C@@H](OC(C)=O)C(C)(C)[C@@H]5C[C@@H](OC5OC(COC(C)=O)C(O)C(O)C5O)[C@@]4(C)C2=CC[C@H]3[C@H]1C (stereo not given in full) | 27.8 | 20.5 | 15.3 | 26.5 | 35.3 | 16.2 | 13.9 | 8.01 | 19 | 20.5 | – | – | – | – | – | – | – | – | – | – |
| COc1ccc2c(c1)O/C(=C\c1cccc(OCC(=O)Nc3nc4c(s3)CCCC4)c1)C2=O | > 100 | 18.5 | > 100 | > 100 | > 100 | 7.63 | > 60.1 | > 33.2 | 12.3 | > 100 | 18.1 | 3.68 | > 43.3 | 5.52 | 60.8 | 2.98 | 12.7 | 3.41 | 5.33 | > 46.2 |
| CC(C)=CCc1c2c(c3occ(-c4ccc(O)c(O)c4)c(=O)c3c1O)C=CC(C)(C)O2 | 5.35 | 5 | 3.2 | 3.84 | 5.87 | 3.59 | 3.45 | 4.04 | 4.93 | 14.2 | – | – | – | – | – | – | – | – | – | – |
| O=c1cc(/C=C/c2ccc(O)c(O)c2)oc(/C=C/c2ccc(O)c(O)c2)c1 | 27.6 | 8.78 | 11.8 | 25.1 | > 65.3 | 10.8 | 17.6 | > 27.4 | 13.2 | 6.43 | – | – | – | – | – | – | – | – | – | – |
| Cc1cn2c(/C=C3/C(=O)Nc4cccc(Cl)c43)c(Cl)nc2s1 | > 100 | > 100 | > 100 | > 100 | > 100 | > 100 | > 100 | > 100 | > 100 | > 100 | – | – | – | – | – | – | – | – | – | – |
| Cc1cc(C)c2c(=O)n(CN3CC4Nc5ccccc5C4C3)sc2n1 (stereo not given) | 44.3 | > 100 | 42.2 | 47.6 | > 100 | 98.5 | 50.6 | > 100 | 54.1 | 71.4 | – | – | – | – | – | – | – | – | – | – |
| CC(=O)N/N=C1/NN(C(C)=O)C2(S1)C(=O)Nc1ccc(Br)cc12 (stereo not given) | > 100 | > 100 | > 100 | > 100 | > 100 | > 100 | > 100 | > 100 | > 100 | > 100 | – | – | – | – | – | – | – | – | – | – |
